A word on the inhibition: it is the share of the control response that was lost under treatment.

This is an account of results in patent US8575178B2, “Isothiazolo-pyrimidinedione derivatives as TRPA1 modulators” (Glenmark Pharmaceuticals S.A., priority 2009, dated 2013).

Test [1] has as its target T1, human TRPA1 (Homo sapiens, UniProt O75762).
T1 construct: expressed in transfected cells; host or cells: CHO cells (G-418 selection)
Nature of the test: 45Calcium uptake assay, inhibition of AITC induced calcium uptake in human TRPA1 expressing CHO cells. Particulars: AITC 30 μM. The test is classed as cell-based. The source says:
(§1) The illustrative examples of the present invention are screened for TRPA1 activity according to a modified procedure described in (a) Tóth, A. et al. Life Sciences, 2003, 73, 487-498. (b) McNamara C, R. et al, Proc. Natl. Acad. Sci. U.S.A., 2007, 104, 13525-13530. The screening of the compounds can be carried out by other methods and procedures known to persons skilled in the art.
(§2) Screening for TRPA1 Antagonist Using the ^45Calcium Uptake Assay:
(§3) The inhibition of TRPA1 receptor activation was measured as inhibition of allyl isothiocyanate (AITC) induced cellular uptake of radioactive calcium.
(§4) Test compounds were dissolved in 100% DMSO to prepare 10 mM stock and then diluted using plain medium with 0.1% BSA and 1.8 mM CaCl2 to get the desired concentration. The final concentration of DMSO in the reaction was 0.5% (v/v). Human TRPA1 expressing CHO cells were grown in F-12 DMEM medium with 10% FBS, 1% penicillin-streptomycin solution, and 400 μg/ml of G-418. Rat TRPA1 expressing CHO cells were grown in F-12 DMEM medium with 10% FBS, 1% penicillin-streptomycin solution, and 400 μg/ml of Zeocin. Cells were seeded 24 h prior to the assay in 96 well plates so as to get ˜50,000 cells per well on the day of experiment. Cells were treated with the test compounds for 10 minutes followed by the addition of AITC at a final concentration of 30 μM (for human TRPA1) and/or 10 μM (for rat TRPA1) and 5 μCi/ml ^45Ca^+2 for 3 minutes. Cells were washed and lysed using a buffer containing 1% Triton X-100, 0.1% deoxycholate and 0.1% SDS. Radioactivity in the lysate was measured in a Packard TopCount after addition of liquid scintillant. (Toth et al, Life Sciences (2003) 73, 487-498; McNamara C R et al, Proceedings of the National Academy of Sciences, (2007) 104, 13525-13530).
(§5) Concentration response curves were plotted as a % of maximal response obtained in the absence of test antagonist. IC50 values can be calculated from concentration response curve by nonlinear regression analysis using GraphPad PRISM software.

The target in test [2] is T2, rat TRPA1 (Rattus norvegicus, UniProt Q6RI86).
T2 construct: expressed in transfected cells; host or cells: CHO cells (Zeocin selection)
Description: 45Calcium uptake assay, inhibition of AITC induced calcium uptake in rat TRPA1 expressing CHO cells. The test is classed as cell-based. Particulars: AITC 10 μM.
Description: as §1, §2, §3, §4, §5

T1 sequence (O75762 whole entry): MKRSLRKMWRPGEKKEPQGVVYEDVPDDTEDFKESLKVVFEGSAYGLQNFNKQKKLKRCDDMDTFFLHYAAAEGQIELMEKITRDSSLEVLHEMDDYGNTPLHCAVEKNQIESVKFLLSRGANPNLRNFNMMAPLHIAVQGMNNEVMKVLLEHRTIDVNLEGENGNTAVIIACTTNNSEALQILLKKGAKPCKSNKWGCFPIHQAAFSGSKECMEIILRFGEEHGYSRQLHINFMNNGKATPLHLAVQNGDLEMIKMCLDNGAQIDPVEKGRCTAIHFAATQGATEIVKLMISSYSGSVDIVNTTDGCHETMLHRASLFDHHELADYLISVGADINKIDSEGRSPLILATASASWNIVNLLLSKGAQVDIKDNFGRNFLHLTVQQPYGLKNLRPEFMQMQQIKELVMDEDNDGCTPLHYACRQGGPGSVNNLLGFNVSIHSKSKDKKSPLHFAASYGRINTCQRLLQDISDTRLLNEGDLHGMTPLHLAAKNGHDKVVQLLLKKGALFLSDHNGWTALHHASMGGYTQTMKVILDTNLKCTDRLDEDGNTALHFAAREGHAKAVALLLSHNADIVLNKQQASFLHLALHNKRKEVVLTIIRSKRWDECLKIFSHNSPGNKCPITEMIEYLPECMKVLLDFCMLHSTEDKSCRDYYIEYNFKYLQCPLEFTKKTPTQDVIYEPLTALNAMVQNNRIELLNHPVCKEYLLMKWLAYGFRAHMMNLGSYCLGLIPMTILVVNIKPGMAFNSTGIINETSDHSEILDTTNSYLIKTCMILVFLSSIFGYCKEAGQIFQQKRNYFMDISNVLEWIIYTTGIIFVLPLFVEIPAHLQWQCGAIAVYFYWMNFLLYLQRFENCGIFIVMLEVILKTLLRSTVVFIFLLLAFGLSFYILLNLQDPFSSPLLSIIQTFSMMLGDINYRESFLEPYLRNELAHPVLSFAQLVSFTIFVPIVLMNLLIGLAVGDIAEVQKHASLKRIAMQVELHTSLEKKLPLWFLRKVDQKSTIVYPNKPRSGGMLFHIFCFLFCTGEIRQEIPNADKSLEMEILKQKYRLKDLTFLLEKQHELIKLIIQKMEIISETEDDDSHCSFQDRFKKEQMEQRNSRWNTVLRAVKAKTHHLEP
T2 sequence (Q6RI86 whole entry): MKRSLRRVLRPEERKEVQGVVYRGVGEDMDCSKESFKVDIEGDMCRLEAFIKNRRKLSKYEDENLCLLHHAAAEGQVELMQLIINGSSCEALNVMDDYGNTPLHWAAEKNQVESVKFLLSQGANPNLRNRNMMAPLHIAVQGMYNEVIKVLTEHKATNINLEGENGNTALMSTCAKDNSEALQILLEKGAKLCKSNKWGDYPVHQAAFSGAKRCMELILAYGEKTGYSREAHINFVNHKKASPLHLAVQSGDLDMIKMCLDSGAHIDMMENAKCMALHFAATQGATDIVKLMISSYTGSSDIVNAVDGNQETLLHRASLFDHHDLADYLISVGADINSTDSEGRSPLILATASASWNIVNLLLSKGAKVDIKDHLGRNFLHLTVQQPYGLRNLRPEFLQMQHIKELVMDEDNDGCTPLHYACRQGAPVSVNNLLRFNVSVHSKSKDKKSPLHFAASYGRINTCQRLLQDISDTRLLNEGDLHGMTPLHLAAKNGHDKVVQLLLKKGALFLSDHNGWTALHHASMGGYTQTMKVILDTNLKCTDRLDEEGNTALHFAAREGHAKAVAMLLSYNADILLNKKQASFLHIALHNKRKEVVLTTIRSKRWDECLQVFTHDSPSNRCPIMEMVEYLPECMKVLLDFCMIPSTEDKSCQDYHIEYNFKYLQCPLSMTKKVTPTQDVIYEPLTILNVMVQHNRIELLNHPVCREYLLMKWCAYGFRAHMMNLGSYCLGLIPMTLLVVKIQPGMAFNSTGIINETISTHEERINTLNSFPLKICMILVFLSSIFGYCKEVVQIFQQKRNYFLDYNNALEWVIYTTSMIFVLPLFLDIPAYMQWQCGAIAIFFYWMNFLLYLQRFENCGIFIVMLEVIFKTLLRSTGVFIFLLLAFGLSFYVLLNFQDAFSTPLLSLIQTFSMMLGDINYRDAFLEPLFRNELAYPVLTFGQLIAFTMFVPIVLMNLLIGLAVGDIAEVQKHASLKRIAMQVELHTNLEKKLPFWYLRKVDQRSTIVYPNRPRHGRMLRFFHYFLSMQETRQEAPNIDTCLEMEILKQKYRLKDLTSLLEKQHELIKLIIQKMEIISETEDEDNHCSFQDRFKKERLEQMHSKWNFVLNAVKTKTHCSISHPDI

Consider `Cn1c(=O)c2c(CC(=O)Nc3nc(-c4ccc(C(F)(F)F)c(F)c4F)cs3)nsc2n(C)c1=O` [Example 39, N-{4-[2,3-Difluoro-4-(trifluoromethyl)phenyl]-1,3-thiazol-2-yl}-2-(5,7-dimethyl-4,6-dioxo-4,5,6,7-tetrahydro[1,2]thiazolo[5,4-d]pyrimidin-3-yl)acetamide], for which the inhibition at 1 µM in test [1] (1.0 μM compound, read-out: human TRPA1 Percentage inhibition at 1.0 μM) came out at 99.8%; in test [2] (1.0 μM compound, read-out: rat TRPA1 Percentage inhibition at 1.0 μM), 96.5%. For the same molecule, the inhibition at 10 µM came out at 99.9% in test [1] (10.0 μM compound, read-out: human TRPA1 Percentage inhibition at 10.0 μM) and 95.8% in test [2] (10.0 μM compound, read-out: rat TRPA1 Percentage inhibition at 10.0 μM).
